From patent US20250268923A1, “APPLICATION OF TETRACYCLINE COMPOUND IN TREATMENT OF TUMOR” (NANJING SHIJIANG MEDICINE TECHNOLOGY CO., LTD, priority 2021, published 2025)

Legend:
Type in all cases: cell-based
[1] = test system: SW48 (human colon adenocarcinoma cell); experiment: Cell viability (CellTiter-Glo), SW48; conditions: sensitive group, 3-4 days of culture, n=3, read-out: Tigecycline IC50
Protocol: (§1) The inhibitory effect of tigecycline on various tumor cell lines was detected using cell activity detection reagent.
(§2) Cell viability was detected using the Promega CellTiter-Glo kit, cell viability was determined by directly measuring intracellular ATP content. In the experiment, the IC50 value of tigecycline on various tumor cell lines was determined.
(§3) Each tumor cell was cultured separately in relevant medium (+p/s), and was incubated for 3 h, then the gradient diluted tigecycline was added. After 3-4 days of culture, the relevant IC50 (50% inhibiting concentration) was measured (n=3). The name, source and culture conditions of each tumor cell line were as follows:
Cell line SW48 (ATCC, No. CCL-231) was cultured in 10% fetal bovine serum-containing Leibovitz's L-15 medium (+P/S).

[2] = test system: NCI-H82 (ov-NNMT) cell (NNMT protein-overexpressing); experiment: Cell viability (CellTiter-Glo), NNMT-overexpressing NCI-H82; conditions: Homo sapiens, NNMT gene inserted by viral vector, n=3, read-out: IC50 value of tigecycline on NNMT protein-overexpressing NCI-H82 cell (NCI-H82 (ov-NNMT))
Text: (§4) The NNMT protein-overexpressing NCI-H82 cell (NCI-H82 (ov-NNMT)) was obtained by inserting the NNMT gene into NCI-H82 cell using a viral vector. The control NCI-H82 cell (NCI-H82 (Con)) was obtained by transfecting NCI-H82 cell with empty virus vector without carrying NNMT gene.
(§5) The expressing level of NNMT protein in control NCI-H82 cell (NCI-H82 (Con)) and NNMT protein-overexpressing NCI-H82 cell (NCI-H82 (ov-NNMT)) was detected using Western Blot assay (as shown in FIG. 7), it could be seen from FIG. 7 that the NNMT protein in NCI-H82 (ov-NNMT) cell was overexpressed compared with the expression level of NNMT protein in NCI-H82 (Con) cell.
(§6) The IC50 value of tigecycline on control NCI-H82 cell (NCI-H82 (Con)) and NNMT protein-overexpressing NCI-H82 cell (NCI-H82 (ov-NNMT)) was determined using Promega CellTiter-Glo kit which detected cell viability by directly measuring intracellular ATP content (n=3), the experiment result was shown in Table 4 below: […]

[3] = test system: MDA-MB-453 (breast cancer cell); experiment: Cell viability (CellTiter-Glo), MDA-MB-453; conditions: Homo sapiens, sensitive group, 3-4 days of culture, n=3, read-out: Tigecycline IC50
Protocol: as §1, §2, §3
Cell line MDA-MB-453 (ATCC, No. HTB-131) was cultured in 10% fetal bovine serum-containing Leibovitz's L-15 medium (+P/S).

[4] = test system: 786-O (clear cell renal cell adenocarcinoma cell); experiment: Cell viability (CellTiter-Glo), 786-O; conditions: Homo sapiens, 786-0, insensitive group, 3-4 days of culture, n=3, read-out: Tigecycline IC50
Protocol: as §1, §2, §3
Cell line 786-0 (ATCC, No. CRL-1932) was cultured in 10% fetal bovine serum-containing RPMI1640 medium (+P/S).

[5] = test system: NCI-H82 (Con) cell (transfected with empty virus vector); experiment: Cell viability (CellTiter-Glo), control NCI-H82 (Con); conditions: Homo sapiens, n=3, read-out: IC50 value of tigecycline on control NCI-H82 cell (NCI-H82 (Con))
Text: as §4, §5, §6

[6] = test system: NCI-H82 (human small cell lung cancer cell); experiment: Cell viability (CellTiter-Glo), NCI-H82; conditions: sensitive group, 3-4 days of culture, n=3, read-out: Tigecycline IC50
Protocol: as §1, §2, §3
Cell line NCI-H82 (ATCC, No. HTB-175) was cultured in 10% fetal bovine serum-containing RPMI1640 medium (+P/S).

[7] = test system: GB-1 (human glioblastoma cell); experiment: Cell viability (CellTiter-Glo), GB-1; conditions: insensitive group, 3-4 days of culture, n=3, read-out: Tigecycline IC50
Protocol: as §1, §2, §3
Cell line GB-1 (JCRB, No. IFO050489) was cultured in 10% fetal bovine serum-containing DMEM medium (+P/S).

[8] = test system: CFPAC-1 (human pancreatic cancer cell); experiment: Cell viability (CellTiter-Glo), CFPAC-1; conditions: insensitive group, 3-4 days of culture, n=3, read-out: Tigecycline IC50
Protocol: as §1, §2, §3
Cell line CFPAC-1 (ATCC, No. CRL-1918) was cultured in 10% fetal bovine serum-containing IMDM medium (+P/S).

[9] = test system: G-401 (human renal carcinoma Wilms cell); experiment: Cell viability (CellTiter-Glo), G-401; conditions: sensitive group, 3-4 days of culture, n=3, read-out: Tigecycline IC50
Protocol: as §1, §2, §3
Cell line G-401 (ATCC, No. CRL-1441) was cultured in 10% fetal bovine serum-containing McCoy's 5a medium (+P/S).

[10] = test system: SF-126 (human glioblastoma multiforme cell); experiment: Cell viability (CellTiter-Glo), SF-126; conditions: insensitive group, 3-4 days of culture, n=3, read-out: Tigecycline IC50
Protocol: as §1, §2, §3
Cell line SF126 (JCRB. No. IFO50286) was cultured in 10% fetal bovine serum-containing EMEM medium (+P/S).

[11] = test system: WSU-DLCL2 (human diffuse large B-cell lymphoma); experiment: Cell viability (CellTiter-Glo), WSU-DLCL2; conditions: WSUDLCL2, sensitive group, 3-4 days of culture, n=3, read-out: Tigecycline IC50
Protocol: as §1, §2, §3
Cell line WSU-DLCL2 (DSMZ, No. ACC-575) was cultured in 10% fetal bovine serum-containing RPMI1640 medium (+P/S).

Question: How did the IC50 [1] turn out when `CN(C)c1cc(NC(=O)CNC(C)(C)C)c(O)c2c1C[C@H]1C[C@H]3[C@H](N(C)C)C(O)=C(C(N)=O)C(=O)[C@@]3(O)C(O)=C1C2=O` [Tigecycline, tigecycline] was run?
Answer: The IC50 was 6.31 µM.

Question: And the IC50 [2]?
Answer: Its IC50 is 2.31 µM.

Question: What about the IC50 [3] of the same compound?
Answer: Its IC50 is 5.05 µM.

Question: And the IC50 [4]?
Answer: The IC50 was 26.9 µM.

Question: What about the IC50 [5] of the same compound?
Answer: Its IC50 is 0.75 µM.

Question: What about the IC50 [6] of the same compound?
Answer: Its IC50 is 0.79 µM.

Question: What about the IC50 [7] of the same compound?
Answer: The IC50 was 18.5 µM.

Question: What about the IC50 [8] of the same compound?
Answer: Its IC50 is 24.8 µM.

Question: What about the IC50 [9] of the same compound?
Answer: Its IC50 is 4.04 µM.

Question: And the IC50 [10]?
Answer: Its IC50 is 26.3 µM.

Question: And the IC50 [11]?
Answer: The IC50 was 1.36 µM.
